Data on two molecules can be found in patent publication US20230107216A1, “PANTETHEINE DERIVATIVES AND USES THEREOF” (Comet Therapeutics, Inc., priority 2018, published 2023).

Data set [1] has as its system Bronchial epithelial cells (BE3C system). The data set can be described thus: BioMAP BE3C system (IL-1β, TNFα, IFNγ). Type of data set: cell-based, human. To be noted: Homo sapiens, Epithelial cell, 24 h; 10 uM; procedure of Example 831; read-out: % decrease in MMP-1.
The subject of data set [2] is Dermal fibroblasts (HDF3CGF system). The data set can be described thus: BioMAP HDF3CGF system (IL-1β, TNFα, IFNγ, EGF, bFGF, PDGF-BB). Type of data set: cell-based, human. To be noted: Homo sapiens, Fibroblast, 72 h; 10 uM; read-out: % increase in 72 Hour Proliferation.
In data set [3] the test system is Peripheral blood mononuclear cells co-cultured with B-cells (BT system).
Data set [4] deals with Propionic Acidemia (PA) primary fibroblasts GM00371. The data set can be described thus: Mitochondrial respiration, XFe96 Extracellular Flux Analyzer (OCR/ECAR), PA fibroblasts GM00371. Type of data set: cell-based. To be noted: Homo sapiens, Fibroblast.
Data set [5] relates to Peripheral blood mononuclear cells co-cultured with B-cells (BT system). The data set can be described thus: cells. To be noted: Homo sapiens, 72 h, read-out: % decrease in sIL-17.
Data set [6] deals with Bronchial epithelial cells co-cultured with dermal fibroblast (BF4T system). The data set can be described thus: BioMAP BF4T system (TNFα and IL-4). To be noted: 10 uM, procedure of Example 830. Type of data set: cell-based, human.
Data set [7] concerns HepG2 cells. The data set can be described thus: Glucose uptake (Glucose Uptake-Glo). Type of data set: cell-based. Conditions: Homo sapiens, read-out: % increase in Glucose Uptake.
In data set [8] the test system is Peripheral blood mononuclear cells co-cultured with venular endothelial cells (HUVEC) (LPS system). The data set can be described thus: BioMAP LPS system. Type of data set: cell-based, human. Conditions: procedure of Example 827.
In data set [9] the test system is Venular Endothelial cells (HUVEC) (3C system). The data set can be described thus: BioMAP 3C system (IL-1β, TNFα, IFNγ). Type of data set: cell-based, human. To be noted: 10 uM; procedure of Example 825. On the procedure: (§1) The BioMAP platform (BioMAP® Diversity PLUS® Panel from Eurofins) is an in vitro phenotypic profiling technology that screened the compounds of the present disclosure (hereafter indicated as test agents) in human primary cell-based systems modelling complex tissue and disease states. The BioMAP assays were performed using the Eurofin's BioMAP Technology Platform as (see references 1 to 13 in the example 824 section) to model different diseases on primary cell-based model systems. These systems consisted of either single primary cell types or co-culture cells. Adherent cell types were cultured or co-cultured in 96 or 384-well plates until confluence followed by the addition of compounds prepared in DMSO at a final concentration of ≤0.1%. In each cell-based system, primary cells from heathy donors (2-6 donors) were pooled and treated with compounds at 1 and 10 μM dose 1h prior to stimulation and remain in culture as indicated in Example 825, Example 826, Example 827, Example 828, Example 829, Example 830, Example 831, Example 832, Example 833, Example 834, Example 835, Example 836 and Example 837. For on the BioMAP® Diversity PLUS® Panel, please see the following references, which are incorporate herein.
Following the general procedure as described in Example 824, Venular Endothelial cells (HUVEC) (3C system) were treated with IL-1β, TNFα, IFNγ for 24h to model Th1 driven cardiovascular and chronic inflammation diseases in the presence or absence of the compounds. Biomarker read out were; Tissue Factor, ICAM-1, E-selectin, uPAR (CD87), IL-8, MIG, HLA-DR, proliferation and SRB (Sulfo-rhodamine i.e. staining for protein content).

Data set [10] relates to Coronary artery smooth muscle cells (CASM3C system). The data set can be described thus: BioMAP CASM3C system (IL-1β, TNFα, IFNγ). Type of data set: cell-based, human.
The subject of data set [11] is Keratinocytes co-cultured with dermal fibroblast (KF3CT system). The data set can be described thus: BioMAP KF3CT system (IL-1β, TNFα, IFNγ, TGFβ). Type of data set: cell-based, human. How it is done: as §1
Following the general procedure as described in Example 824, Keratinocytes were co-cultured with dermal fibroblast (KF3CT system) and treated with IL-1β, TNFα, IFNγ and TGFβ for 24h in the presence or absence of the compounds to model psoriasis, dermatitis and skin biology. Biomarkers read out were; MCP-1, ICAM-1, IP-10, IL-8, MIG, IL-1α, MMP-9, PAI-1, SRB, TIMP-2, uPA.

Data set [12] relates to Venular Endothelial cells (HUVEC) (4H system). The data set can be described thus: BioMAP 4H system (IL-4 and histamine). Type of data set: cell-based, human. To be noted: 10 uM; procedure of Example 826.
For data set [13], the system named is primary fibroblasts (healthy controls and PA, MMA, BCKDK, PDH, VLCAD, LS, PC, GA, VLCFA, KSS, FXN, HD). The data set can be described thus: Measurement of ROS (H2DCFDA) in primary fibroblasts. To be noted: Homo sapiens, procedure Example 812, Assay Condition C. Type of data set: cell-based, human. A digest of the protocol:
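Patient and healthy-control primary fibroblasts switched to supplemented DMEM 24 h before assay, then treated with compound (10 μM) plus H2DCFDA (22 μM) for 2 h (PA, MMA lines) or 24 h (other lines). Kinetic fluorescence at 492/527 nm over 60 min; only live cells analysed.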

For data set [14], the system named is Subnormal activation of pyruvate dehydrogenase complex (PDH) primary fibroblasts GM01503 (GM1503A). The data set can be described thus: Total NAD+ + NADH and NAD+ (NAD/NADH-Glo), PDH fibroblasts GM01503. Type of data set: cell-based. Conditions: Homo sapiens, Fibroblast, PDH GM1503A P10, assay condition A, 24h, read-out: Increase in Total NAD+ + NADH. On the procedure:
(§2) Primary adherent fibroblasts were cultured in minimum essential medium (MEM) (Gibco, 25030081) supplemented with 2 mM L-Glutamine (Gibco, 25030081), 15% fetal bovine serum (FBS) (Gibco, 26400044) and 1% penicillin/streptomycin (Gibco, 5140122) at 37° C. and 5% CO2. Cells were collected for either passaging or experiment at ˜70-80% confluence. Cells were obtained by trypsinization and seeded in cell culture microplates either white plate (Thermo Fisher Scientific, 152028) for luminescent measurement or black plate (Thermo Fisher Scientific, 165305) for fluorescent based read out for different assays listed below. Cells were obtained by trypsinization and […] were seeded and allowed to adhere for 16-18 hours to have confluency around 70-80% in the cell well with culture media. After 24 hours prior to measurements (37° C., 5% CO2) media was changed to Dulbecco's Modified Eagle Medium (DMEM, Agilent Seahorse cat #103575-100) with the appropriate supplements as stated below.
(§3) Primary fibroblasts assayed were Propionic Acidemia (PA) (GM03590 Coriell Institute for Medical Research, Tsi 6337 Trans-Hit Bio), Methylmalonic Acidemia (MMA) (Tsi 5224 Trans-Hit Bio), Subnormal activation of pyruvate dehydrogenase complex (PDH) (GM01503 Coriell Institute for Medical Research), Very long-chain acyl-CoA dehydrogenase (VLCAD) (GM17475), Leigh Syndrome (LS) (GM03672, GM13411 Coriell Institute for Medical Research), Pyruvate Carboxylase Deficiency (PC) (GM00444 Coriell Institute for Medical Research). 10 μM of Compounds were added for 2 hours in PA, MMA lines and for 24h for the other fibroblast lines.
(§4) Assay was performed according to manufacturer instructions (NAD/NADH-Glo Assay Promega, G9072). The NAD/NADH-Glo Assay is a bioluminescent assay for detecting total oxidized and reduced nicotinamide adenine dinucleotides (NAD+ and NADH, respectively) from which ratio of NAD/NADH can be calculated. Briefly, for every assay a 12-point standard curve was prepared ranging from 400 nM to 0.625 nM. Media was removed and replaced with 50 μl of PBS for both assays.
(§5) For individual NAD+ and NADH measurement, 50 μl of 1% DTAB (Sigma Cat #D5047) (cell lysis reagent) in 0.2N NaOH was added to the plate and a total 100 μl of lysate was split into two plates with 50 μl each. 25 μl of 0.4N HCl were added to the NAD+ plate and both NAD+ and NADH plate were heated at 60° C. for 15 minutes. The acid and heat treatment destroyed NADH allowing individual NAD+ measurement while heating in basic conditions destroys NAD+ allowed individual NADH measurements. The plates were allowed to come to room temperature for 10 minutes and Trizma base (Sigma, T1699) was added to the NAD+ plate to neutralize the acid and HCl Trizma hydrochloride (Sigma, T2694) was added to the NADH plate. The NADNADH glo reagent was prepared by adding: 625 μl of NAD cycling substrate, 125 μl of reductase, 125 μl of reductase substrate, 125 μl NAD cycling enzyme to total of the 25 ml of NAD GLO reagent. 1:1 ratio of total volume of reagent was added to the individual NAD+, NADH measurement (total 100 μl) and 50 μl for total NAD/NAH measurement. Luminescence was read between 30-60 minutes within the linear range.
(§6) A total dead cell count was performed as described in Example 817 and only alive cells were used for analysis.

The subject of data set [15] is Very long-chain acyl-CoA dehydrogenase (VLCAD) primary fibroblasts GM17475. The data set can be described thus: Total NAD+ + NADH and NAD+ (NAD/NADH-Glo), VLCAD fibroblasts GM17475. To be noted: Homo sapiens, Fibroblast, VLCAD GM17475 P10, assay condition A, 24h, read-out: Increase in Total NAD+ + NADH. Type of data set: cell-based. On the procedure: as §2, §3, §4, §5, §6

The structures appear in SMILES notation. Like-named read-outs stand apart in the source and are kept apart here.

Regarding `COC(=O)CCC(=O)SCCNC(=O)CCNC(=O)[C@H](OC(C)=O)C(C)(C)CO` [Compound 213, methyl 4-[(2-[3-[(2R)-2-(acetyloxy)-4-hydroxy-3,3-dimethylbutanamido]propanamido]ethyl)sulfanyl]-4-oxobutanoate], the inhibition at 10 µM in data set [1] was not below 10%; in data set [8] (Homo sapiens, HUVEC, 24 h, read-out: % decrease in IL-1α), not below 20%; in [8] (Homo sapiens, HUVEC, 24 h, read-out: % decrease in TissueFactor), not below 10%; in data set [10] (Homo sapiens, 24 h, 10 uM, read-out: % decrease in Thrombomodulin), not below 20%. The activation at 10 µM in [2] was not below 10%; in data set [4] (assay condition A (10 mM glucose, 2 mM L-glutamine, 1 mM pyruvate, 10% FBS), 10 μM, read-out: Increase in Spare Capacity AUC), not below 10%; in data set [6] (Homo sapiens, 24 h, read-out: % increase in VCAM-1) it was not below 10%. In data set [3] (1 uM, procedure of Example 829), the “% decrease in sIL-2” value was not below 10%. For the same molecule, the “% decrease in sTNFα” value in data set [3] (1 uM, procedure of Example 829) is recorded as not below 10%. Moreover, the “% decrease in PBMC cytotoxicity” value in data set [3] (human, 72 h, 1 µM) is on record as not below 10%. Moreover, the activation at 50 µM in data set [4] (assay condition D (1 mM glucose, 10% FBS), read-out: Increase in Spare Capacity AUC) is not below 10%; in data set [7] (50 uM), not below 30%. In addition, the inhibition at 1 µM in data set [5] was not below 20%; in [8] (Homo sapiens, HUVEC, 24 h, 1 uM, read-out: % decrease in IL-8), not below 10%. The “% decrease in MMP-9” value in data set [6] and in data set [11] (1 uM) was not below 10% throughout. The “% decrease in M-CSF” value is recorded as not below 10% in data set [8] (1 uM) and not below 10% in data set [10] (1 uM, procedure of Example 832). Also, in [9], the “% decrease in IL-8” value is recorded as not below 10%. In addition, the “% decrease in HLA-DR” value in data set [10] (1 uM) is listed as not below 10%. The “% decrease in Tissue Factor” value in [10] (1 uM) is not below 10%. Also, in data set [10] (1 uM, procedure of Example 832), the “% decrease in VCAM-1” value is recorded as not below 10%. In data set [10] (10 uM), the “% decrease in CXCL9” value is recorded as not below 10%. Moreover, the “% decrease in MCP-1” value in data set [11] (10 uM, procedure of 834) is on record as not below 10%; in data set [12], not below 10%.
In the case of `CC(=O)C(C(C)=O)C(=O)SCCNC(=O)CCNC(=O)[C@H](O)C(C)(C)CO` [Compound 397, (2R)—N-[2-([2-[(2-acetyl-3-oxobutanoyl)sulfanyl]ethyl]arbamoyl)ethyl]-2,4-dihydroxy-3,3-dimethylbutanamide], the inhibition at 10 µM in data set [13] (Fibroblast, PDH GM01503, read-out: Decreased ROS by at least 10%) was not below 10%; in data set [13] (Fibroblast, PDH GM01503, read-out: Decreased ROS by at least 30%) it was not below 30%; in data set [13] (FXN GM04078, read-out: Decreased ROS by at least 30%), not below 30%. Moreover, the activation at 10 µM in data set [14] is not below 10%; in data set [15], not below 10%; in [7] (10 uM) it was not below 20%. In data set [4] (assay condition C (10 mM glucose, 10% FBS), read-out: Increase in Maximal Respiratory Capacity AUC), the activation at 50 µM is not below 10%.
